Measured values reported in ChEMBL document CHEMBL1121662 (1981).

Columns and labels:
Type in all cases: functional
Mus musculus [1] = organism: Mus musculus; test: Compound was evaluated for Carcinogenicity based on concentration necessary to produce one tumor per mouse (Strain A)
Mus musculus [2] = organism: Mus musculus; test: Compound was evaluated for Carcinogenicity to produce 0.5 tumors per mouse (B.5)
Mus musculus [3] = organism: Mus musculus; test: Compound was evaluated for mutagenicity after threshold range
Mus musculus [4] = organism: Mus musculus; test: Compound was evaluated for low level mutagenicity

NC(=O)Nc1cc(NC(N)=O)cc(N(CCCl)CCCl)c1
Log 1/B+1 (Mus musculus [1]): 4.26 | Log 1/B.5 (Mus musculus [2]): 5.43 | Log 1/Th+200 (Mus musculus [3]): -0.01 | Log 1/B+100 (Mus musculus [4]): 0.31

ClCCN(CCCl)c1ccc(/C=C/c2ccccc2)cc1
Log 1/Th+200 (Mus musculus [3]): 2.04 | Log 1/B+100 (Mus musculus [4]): 1.99
